This note sets out measurements from US20070026465A1, “Method for detecting GAD65 autoreactive T cells newly diagnosed type1 diabetic patients and in the prediabetic period” (priority 2005, published 2007).

What all share (format): cell-based, human
Experiment [1] concerns PBMC of healthy control individuals. In words: GAD65 HLA class I tetramer staining and flow cytometry of stimulated PBMC, healthy controls. Also on record: % CD3+/CD8+/GAD65 reactive T cells, average / % CD3+/CD8+/GAD65 reactive T cells: concentration or dose not given beside the values. For orientation: A flow cytometer gives signals particle by particle.
Experiment [2] deals with PBMC of newly diagnosed T1D patients. In words: GAD65 HLA class I tetramer staining and flow cytometry of stimulated PBMC, T1D patients. Also on record: % CD3+/CD8+/GAD65 reactive T cells, average / % CD3+/CD8+/GAD65 reactive T cells: concentration or dose not given beside the values.
The subject of experiment [3] is PBMC of healthy normal controls. In words: T cell activation (CD69 staining) in stimulated PBMC, healthy controls.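 Further: GAD65 peptide 10 to 30 µg/ml in culture medium.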 The settings on record: GAD65 peptide treated PBMC, day 6. On the procedure: (§1) PBMC were separated from 5-10 ml heparinized peripheral blood by Ficoll gradient centrifugation (Histopaque, Sigma-Aldrich, St. Luis, Mo., USA). […] This washing step was introduced in the method to remove the GAD65 peptide and therefore reduce the risk of aspecificities in the subsequent procedure of tetramer binding. […] Cells were then harvested and processed for tetramer staining and flow cytometric analysis.
(§2) On day 4 or day 6 from the beginning of culture, 1×10^6 cells were allocated for staining. They were washed by centrifugation at 1500 rpm for 5 min at room temperature in wash buffer [0.1% sodium azide, 2% FBS in PBS] then resuspended in the residual volume (approximately 50 μl). 1 μl of phycoerythrin (PE) labelled GAD65 tetramer was added and incubated in ice for 30^+ min in the dark. […] Cells were then washed twice in phosphate buffer and their staining achieved using a Beckton Dickinson FACSCalibur flow cytometer and analysed with the CellQuest software program. T cell activation was evaluated by staining cells with […] in different multiple staining experiments. […]

Experiment [4] concerns PBMC of newly-diagnosed T1D patients. In words: T cell activation (CD69 staining) in stimulated PBMC, T1D patients.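 Further: GAD65 peptide 10 to 30 µg/ml in culture medium.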 Conditions: GAD65 peptide treated PBMC, day 6. Here is the method:
as §1, §2

For experiment [5], the system named is CD8+/GAD65 reactive lymphocytes of a T1D patient. In words: Early-late apoptosis (Annexin V / propidium iodide) in peptide stimulated PBMC. On the procedure:
At day 4 and day 6 from the beginning of the culture, 1×10^6 cells stimulated with the GAD65 peptide according to the above mentioned protocols were washed in the same washing phosphate buffer as described above and resuspended in the residual volume of approximately 50 μl. 1 μl PE-labelled GAD65 tetramer was used per staining procedure. Cells were then incubated with biotinylated anti-human CD8 MoAb (1:10 dilution, Becton Dickinson) in ice, for at least 30 min, in the dark. They were then washed with washing buffer by centrifugation at 1500 rpm for 5 min at room temperature. 5 μl of streptavidin-(Cy5) conjugate was then added for 30 min at room temperature, in the dark. Cells were then washed in ice cold PBS (2% FBS) by centrifugation at 1500 rpm for 5 min at room temperature. Cell pellet was then suspended in 500 μl of phosphate buffer. 10 μl of cold media binding reagent (Calbiochem, San Diego, Calif., USA) and 1.25 μl of Annexin V-FITC conjugate (Calbiochem) were added according to manufacturer's instructions. […] Staining was then immediately achieved and analysed by flow cytometry. […] Cells were evaluated as necrotic when stained with propidium iodide but negative for Annexin V, cells were evaluated as late apoptotic when propidium iodide positive and binding Annexin V, early apoptotic when propidium iodide negative and Annexin V positive and viable when negative for both stainings.

Several values for one entry are separate records, joined by “and”; a condition that tells them apart may be missing. Identical values can stand only once.

With VMNILLQYV [GAD65 peptide], the “increase of the population of CD3+/CD8+/GAD65 reactive T cells (specificity of the response)” value in experiment [1] was “no significant increase”. Also, the “% CD3+/CD8+/GAD65 reactive T cells, average” value in experiment [1] (GAD65-treated PBMC, average of 22 normal controls, day 6) is 0.9%; in experiment [2] (GAD65 treated PBMC, average of 22 T1D patients, day 6) it was 30.0%. The “% CD3+/CD8+/GAD65 reactive T cells” value in experiment [1] (GAD65-treated PBMC, individual normal controls, day 6 of culture) is 0.37% and 0.42% and 2% and 0.09% and 0.97% and 0.6% and 8% and 1.21% and 0.25% and 0.9% and 1.03% and 0.49% and 0.23% (2×) and 0.03% and 0.21% and 0.11% and 0.13% and 0.14% and 0.17% and 0.86% and 0.57%; in experiment [2] (GAD65 treated PBMC, individual T1D patients, day 6 of culture), 73% and 17% and 12.5% and 14.08% and 1% (2×) and 19% and 98% and 85% and 68% and 22% and 70% and 82% and 21% and 1.35% and 2.64% and 0.81% and 3.19% and 58% and 2.59% and 2.28% and 6.39%. The “percentage of CD8+/GAD65 reactive lymphocytes” value in experiment [1] (healthy control donor, day 4, after GAD65 peptide stimulation (FIG. 9 B-C)) is “very low”. In experiment [2] (T1D patients after GAD65 peptide stimulation, not seen in normal controls), the “Dot Plot pattern of CD8 expression of CD8+ GAD65 reactive T cells” value is listed as “peculiar pattern of low CD8 expression”. Further, the “percentage of CD3+/CD8+/GAD65 reactive T cells compared to IL-2 stimulation” value in experiment [2] (one T1D patient non-responding at day 6, 2 days peptide then 2 days IL-2, analysis at day 4 (FIG. 8)) is reported as “significant increase”. Also, in experiment [3] (average of normal controls), the “% CD69+/CD3+/CD8+ T cells, average” value was determined as 12.9%. Further, in experiment [3] (individual normal controls), the “% CD69+/CD3+/CD8+ T cells” value was 2.1% and 0.75% and 13.51% and 17% and 26% and 13.4% and 18% (2×) and 19% and 1.7%. Further, the “% CD69/CD3/CD8 positive T cells, average” value in experiment [4] (average of T1D patients) is recorded as 18.9%. Besides, in experiment [4] (individual T1D patients), the “% CD69/CD3/CD8 positive T cells” value is 13.5% and 10.94% and 24% and 39% and 28% (2×) and 42% and 18% and 4.63% and 1.5% and 3.2% and 20% and 9.87% and 22%. Besides, the “apoptosis (Annexin V) of CD8+/GAD65 reactive lymphocytes” value in experiment [5] (T1D patient, day 4 of culture with the GAD65 peptide (FIG. 9 E-F)) is “shows signs of apoptosis”. Further, the “population of Annexin V positive cells” value in experiment [5] (same samples, day 6 of GAD65 peptide treatment (FIG. 10)) is reported as “no longer detectable”.
